Data from patent US10874670B2, “Substituted fused heteroaromatic compounds as kinase inhibitors and the use thereof” (IMPACT THERAPEUTICS, INC., priority 2017, dated 2020).
pIC50: −log10 of the molar value.

Columns and labels:
ATM enzyme (human) = ATM enzyme (human) (Homo sapiens, UniProt Q13315); assay: ATM kinase assay (HTRF, GST-cMyc-p53 substrate); type: biochemical; settings: for inhibition at 0.01 µM: C 0.01 μm (final concentration of compound); for inhibition at 0.1 µM: C 0.1 μm (final concentration of compound)
ATM enzyme (human), sequence (Q13315 whole entry): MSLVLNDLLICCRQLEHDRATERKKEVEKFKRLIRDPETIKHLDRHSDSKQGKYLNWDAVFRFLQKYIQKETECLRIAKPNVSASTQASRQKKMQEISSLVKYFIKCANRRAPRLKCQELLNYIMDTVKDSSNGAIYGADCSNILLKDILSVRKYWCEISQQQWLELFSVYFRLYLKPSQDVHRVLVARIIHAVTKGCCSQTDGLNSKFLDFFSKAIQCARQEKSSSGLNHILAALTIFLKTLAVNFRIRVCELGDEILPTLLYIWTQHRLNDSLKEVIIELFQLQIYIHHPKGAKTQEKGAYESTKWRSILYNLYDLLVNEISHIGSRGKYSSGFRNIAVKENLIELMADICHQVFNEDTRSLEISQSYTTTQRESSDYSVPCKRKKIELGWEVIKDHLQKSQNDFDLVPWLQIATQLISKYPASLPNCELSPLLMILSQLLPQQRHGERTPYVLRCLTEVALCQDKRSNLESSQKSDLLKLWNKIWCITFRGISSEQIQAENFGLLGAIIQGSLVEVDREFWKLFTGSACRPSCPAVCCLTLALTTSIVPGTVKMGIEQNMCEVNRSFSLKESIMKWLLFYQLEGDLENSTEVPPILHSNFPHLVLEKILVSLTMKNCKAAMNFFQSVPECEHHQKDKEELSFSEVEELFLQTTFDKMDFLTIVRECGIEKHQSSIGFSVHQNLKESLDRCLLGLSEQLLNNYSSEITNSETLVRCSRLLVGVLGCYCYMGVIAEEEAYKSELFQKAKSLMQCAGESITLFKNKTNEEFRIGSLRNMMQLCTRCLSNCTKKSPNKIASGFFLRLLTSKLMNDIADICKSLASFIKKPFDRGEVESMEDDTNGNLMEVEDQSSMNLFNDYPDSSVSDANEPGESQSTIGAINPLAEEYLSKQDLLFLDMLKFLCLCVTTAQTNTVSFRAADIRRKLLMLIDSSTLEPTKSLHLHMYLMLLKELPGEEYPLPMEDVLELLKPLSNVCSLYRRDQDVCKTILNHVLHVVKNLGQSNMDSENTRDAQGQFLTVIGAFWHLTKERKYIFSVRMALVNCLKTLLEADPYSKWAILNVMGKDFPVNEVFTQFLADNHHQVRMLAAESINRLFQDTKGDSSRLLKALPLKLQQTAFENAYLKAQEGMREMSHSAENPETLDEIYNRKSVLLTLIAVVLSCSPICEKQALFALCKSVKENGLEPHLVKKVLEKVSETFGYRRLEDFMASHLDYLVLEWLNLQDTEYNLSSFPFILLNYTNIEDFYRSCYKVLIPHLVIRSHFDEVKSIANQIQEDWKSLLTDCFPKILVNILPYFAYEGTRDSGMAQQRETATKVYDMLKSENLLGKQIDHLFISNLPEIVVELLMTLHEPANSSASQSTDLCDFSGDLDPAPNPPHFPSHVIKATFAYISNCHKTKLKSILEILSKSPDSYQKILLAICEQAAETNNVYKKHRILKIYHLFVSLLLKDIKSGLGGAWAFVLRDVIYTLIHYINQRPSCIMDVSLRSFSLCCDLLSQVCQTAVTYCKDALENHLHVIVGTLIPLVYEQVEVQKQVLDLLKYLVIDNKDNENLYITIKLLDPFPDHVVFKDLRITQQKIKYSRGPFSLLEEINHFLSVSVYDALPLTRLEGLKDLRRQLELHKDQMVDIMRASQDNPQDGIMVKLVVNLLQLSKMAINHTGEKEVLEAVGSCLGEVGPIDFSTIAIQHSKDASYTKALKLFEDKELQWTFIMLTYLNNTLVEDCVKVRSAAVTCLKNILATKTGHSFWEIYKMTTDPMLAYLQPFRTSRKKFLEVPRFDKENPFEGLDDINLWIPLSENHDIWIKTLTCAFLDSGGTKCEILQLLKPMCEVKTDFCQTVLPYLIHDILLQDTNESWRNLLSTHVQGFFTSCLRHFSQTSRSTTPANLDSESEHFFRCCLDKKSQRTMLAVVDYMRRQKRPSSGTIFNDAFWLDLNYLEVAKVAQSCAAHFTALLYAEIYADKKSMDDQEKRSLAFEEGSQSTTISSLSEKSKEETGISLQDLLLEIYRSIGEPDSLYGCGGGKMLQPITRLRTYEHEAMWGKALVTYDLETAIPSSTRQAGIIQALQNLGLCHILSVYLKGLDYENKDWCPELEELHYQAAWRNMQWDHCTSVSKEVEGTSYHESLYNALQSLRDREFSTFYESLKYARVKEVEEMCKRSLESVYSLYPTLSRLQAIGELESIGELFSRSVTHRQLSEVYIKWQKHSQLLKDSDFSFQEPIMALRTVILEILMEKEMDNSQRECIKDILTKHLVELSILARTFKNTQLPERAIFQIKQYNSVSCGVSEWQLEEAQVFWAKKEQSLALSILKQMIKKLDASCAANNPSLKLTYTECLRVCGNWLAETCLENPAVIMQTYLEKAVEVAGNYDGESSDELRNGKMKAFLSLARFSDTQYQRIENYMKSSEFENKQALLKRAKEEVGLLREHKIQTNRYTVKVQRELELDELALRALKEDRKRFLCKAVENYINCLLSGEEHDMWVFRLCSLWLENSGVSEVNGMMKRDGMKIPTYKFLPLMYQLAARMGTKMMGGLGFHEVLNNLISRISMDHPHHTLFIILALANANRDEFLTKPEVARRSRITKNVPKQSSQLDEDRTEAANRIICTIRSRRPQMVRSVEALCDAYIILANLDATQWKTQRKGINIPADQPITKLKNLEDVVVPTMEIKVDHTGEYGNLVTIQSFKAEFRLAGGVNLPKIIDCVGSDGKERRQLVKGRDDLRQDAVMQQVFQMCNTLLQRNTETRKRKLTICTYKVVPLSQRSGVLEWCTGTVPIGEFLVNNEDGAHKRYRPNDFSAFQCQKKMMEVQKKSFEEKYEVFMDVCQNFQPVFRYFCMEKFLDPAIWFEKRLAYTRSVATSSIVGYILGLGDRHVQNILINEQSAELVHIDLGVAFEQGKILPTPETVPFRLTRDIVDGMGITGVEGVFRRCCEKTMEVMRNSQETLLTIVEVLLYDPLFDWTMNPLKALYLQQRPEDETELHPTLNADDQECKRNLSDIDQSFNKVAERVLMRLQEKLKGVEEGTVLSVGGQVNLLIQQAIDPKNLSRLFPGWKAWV
Method: In Vitro Inhibition of ATM by N,N-dimethyl-3-(4-(1-(tetrahydro-2H-pyran-4-yl)-[1,2,4]triazolo[4,3-a]quinoxalin-8-yl)phenoxy)propan-1-amine and its Analogues was Determined by ATM Kinase Assay
The reaction was initiated by the addition of a Mg/ATP mixture and incubation for 30 minutes at room temperature, the reaction was quenched by the addition of a stop solution containing EDTA. Finally, the detection buffer containing the d2-labeled anti-GST monoclonal antibody and the europium-labeled anti-phospho p53 (Ser15) antibody was added. The plate was then read in time resolved fluorescence mode and the homogeneous time resolved fluorescence (HTRF) signal was determined according to the equation: HTRF=10000×(Em665nm/Em620nm). Each compound sample was repeated in duplicate. The experiment negative control was all components except of the ATM enzyme and the positive control contained all components. All reactions were quenched by adding EDTA.
ATM kinase inhibition was detected by using the method described above. The curve equation for calculating IC50 value is as follows:
[formula] • wherein, C is the concentration of compound and D is the slope factor.

[1] = tested on: human colon cancer cell SW620; assay: MTT assay, growth of SW620 cells, compounds combined with CPT-11; type: cell-based; settings: for pIC50: combined with CPT-11 (205 nM medium), 5 days, MTT
Method: Inhibitory effects of N,N-dimethyl-3-(4-(1-(tetrahydro-2H-pyran-4-yl)-[1,2,4]triazolo[4,3-a]quinoxalin-8-yl)phenoxy)propan-1-amine and its Analogues Combined with CPT-11 on the Growth of Human Colon Cancer Cell SW620 were Determined by MTT Assay
(§1) SW620 cells were digested by trypsinase, centrifuged at 800 rpm for 5 minutes, the supernatant was discarded, resuspended with fresh medium (RPMI 1640 medium+10% FBS) and counted. The cells were seeded into 96-well cell culture plate with appropriate cell density and incubated overnight in a 37° C. 5% CO2 incubator. The stock solutions of the tested compound and the reference compound AZD0156 were serially diluted to 8 concentrations by DMSO at the ratios of 1:3 and 1:10, respectively, the first concentration was 10 μM or 1 μM, and the last concentration was negative control of DMSO (0 μM, the final concentration of DMSO was 1%). 5 μL of each concentration was added to 120 μL of medium (25 times diluted) and mixed by shaking. The overnight cells were taken and the culture medium was removed, 195 μL of fresh medium containing 205 nM CPT-11 was added to each well, and 5 μL of diluted medium containing the corresponding concentration of the tested sample was added respectively, and the culture plate was then placed in the 5% CO2 cell culture incubator at 37° C. for 5 days. After removing the original solution, 100 pt of fresh serum-free DMEM medium containing MTT (0.5 mg/mL) was added to each well, the culture was continued. After 4 hours, the original solution was removed, 100 μL of DMSO was added into each well, the 96-well plates were shaken away from light for 10 minutes and placed in a multi-function reader to read the absorbance at the wavelength of 552/630/690 nm. GraphPad Prism 6.0 was used to analyze the data. The inhibitory activity of compounds on cell proliferation was plotted based on cell viability and compound concentration. The IC50 value was fitted by a sigmoidal dose response curve equation Y=100/(1+10^(Log C−Log IC50)), where C was the concentration of compound.
Table 3 summarizes the inhibitory effects of compounds combined with CPT-11 on the growth of human colon cancer cell SW620 (IC50).

[2] = tested on: human breast cancer cell MDA-MB-468; assay: MTT assay, growth of MDA-MB-468 cells; type: cell-based; settings: for pIC50: 7 days, MTT
Method: Inhibitory Effects of N,N-dimethyl-3-(4-(1-(tetrahydro-2H-pyran-4-yl)-[1,2,4]triazolo[4,3-a]quinoxalin-8-yl)phenoxy)propan-1-amine and its Analogues on the Growth of Human Breast Cancer Cell MDA-MB-468 were Determined by MTT Assay
as §1, with “MDA-MB-468 cells” for “SW620 cells”, “1:10, respectively:” for “1:10, respectively,”, “was 100” for “was 10”, “medium” for “medium containing 205 nM CPT-11”, “for 7 days (On the fourth day, the medium containing drugs was removed and fresh medium containing drugs was added for continuous cultivation).” for “for 5 days.”, “100 μL” for “100 pt”
Table 4 summarizes the inhibitory effects of compounds on the growth of human breast cancer cell MDA-MB-468 (IC50).

[3] = Homo sapiens, MDA-MB-468, 168 h
[4] = 0.5 h, read-out: Inh (%) of ATM kinase
[5] = 0.5 h, C 1 μm (final concentration of compound), read-out: Inh (%) of ATM kinase

Row | Compound | pIC50 ([1]; Homo sapiens, SW-620, 120 h) | pIC50 [2, 3] | inhibition at 0.01 µM (ATM enzyme (human); [4]) [%] | inhibition at 0.1 µM (ATM enzyme (human); [4]) [%] | inhibition at 1 µM (ATM enzyme (human); [5]) [%] | also measured
1 | CN(C)CCCOc1ccc(-c2ccc3ncc4c(c3c2)n(C2CCOCC2)c(=O)n4C)cn1 [AZD0156, reference compound] | – | – | – | – | – | Inh (%) of ATM kinase (ATM enzyme (human); C 1 μm (final concentration of compound)): 100%; pIC50 [1]: 8.00; pIC50 [2]: 7.96
2 | CN(C)CCCOc1ccc(-c2ccc3ncc4nnc(C5CCOCC5)n4c3c2)cc1 [Example 4, N,N-dimethyl-3-(4-(1-(tetrahydro-2H-pyran-4-yl)-[1,2,4]triazolo[4,3-a]quinoxalin-8-yl)phenoxy)propan-1-amine] | 6.48 | 6.02 | – | – | – | pIC50 (ATM enzyme (human); 10-concentration dilution series, read-out: IC50, inhibition of ATM kinase): 8.05; inhibition at 10 µM (ATM enzyme (human); 0.5 h, C 10 μm (final concentration of compound), read-out: Inh (%) of ATM kinase): 100%; inhibitory effect on ATM kinase (in words) (ATM enzyme (human); ATM kinase (human) assay): good inhibitory effect
3 | CN(C)CCCOc1ccc(-c2ccc3ncc4nnc(C5CCOCC5)n4c3c2)nc1 [Example 5, N,N-dimethyl-3-((6-(1-(tetrahydro-2H-pyran-4-yl)-[1,2,4]triazolo[4,3-a]quinoxalin-8-yl)pyridin-3-yl)oxy)propan-1-amine] | < 4.00 | < 4.00 | 7 | 47 | 96 | –
4 | CN(C)CCCN(C)c1ccc(-c2ccc3ncc4nnc(C5CCOCC5)n4c3c2)cc1 [Example 11, N-(3-(dimethylamino)propyl)-N-methyl-4-(1-(tetrahydro-2H-pyran-4-yl)-[1,2,4]triazolo[4,3-a]quinoxalin-8-yl)aniline] | < 4.00 | < 4.00 | – | – | 64 | –
5 | CN(C)C1CCN(c2ccc(-c3ccc4ncc5nnc(C6CCOCC6)n5c4c3)cc2)CC1 [Example 12, N,N-dimethyl-1-(4-(1-(tetrahydro-2H-pyran-4-yl)-[1,2,4]triazolo[4,3-a]quinoxalin-8-yl)phenyl)piperidin-4-amine] | 6.76 | 6.63 | 50 | 93 | 100 | –
6 | CN(C)C1CCC(c2ccc(-c3ccc4ncc5nnc(C6CCOCC6)n5c4c3)cc2)CC1 (stereo not drawn) [Example 18, N,N-dimethyl-4-(4-(1-(tetrahydro-2H-pyran-4-yl)-[1,2,4]triazolo[4,3-a]quinoxalin-8-yl)phenyl)cyclohexan-1-amine] | < 4.00 | < 4.00 | – | – | 34 | –
7 | CN(C)CCCOc1ccc(-c2ccc3ncc4nnc(N5CCCCC5)n4c3c2)cc1 [Example 20, N,N-dimethyl-3-(4-(1-(piperidin-1-yl)-[1,2,4]triazolo[4,3-a]quinoxalin-8-yl)phenoxy)propan-1-amine] | 6.84 | 6.91 | 79 | 99 | 100 | –
8 | CN(C)CCCOc1ccc(-c2ccc3ncc4nnc(N5CCOCC5)n4c3c2)cc1 [Example 21, N,N-dimethyl-3-(4-(1-morpholino-[1,2,4]triazolo[4,3-a]quinoxalin-8-yl)phenoxy)propan-1-amine] | 6.48 | 6.43 | – | – | 100 | –
9 | CN(C)CCCOc1ccc(-c2ccc3ncc4nnc(N5CCN(C)CC5)n4c3c2)cc1 [Example 22, N,N-dimethyl-3-(4-(1-(4-methylpiperazin-1-yl)-[1,2,4]triazolo[4,3-a]quinoxalin-8-yl)phenoxy)propan-1-amine] | 6.38 | 6.37 | – | – | 100 | –

More lines, main results first:

Row | pIC50 ([1]; Homo sapiens, SW-620, 120 h) | pIC50 [2, 3] | inhibition at 0.01 µM (ATM enzyme (human); [4]) [%] | inhibition at 0.1 µM (ATM enzyme (human); [4]) [%] | inhibition at 1 µM (ATM enzyme (human); [5]) [%] | Compound | also measured
10 | 7.19 | 7.27 | 81 | 99 | 100 | C[C@@H]1CN(c2nnc3cnc4ccc(-c5ccc(OCCCN(C)C)cc5)cc4n23)C[C@H](C)N1C [Example 23, N,N-dimethyl-3-(4-(1-((3S,5R)-3,4,5-trimethylpiperazin-1-yl)-[1,2,4]triazolo[4,3-a]quinoxalin-8-yl)phenoxy)propan-1-amine] | inhibition at 0.001 µM (ATM enzyme (human); 0.5 h, C 0.001 μm (final concentration of compound), read-out: Inh (%) of ATM kinase): 60%; inhibitory effect on the growth of SW620 cells (in words) ([1]; MTT assay, combined with CPT-11): inhibited the growth of SW620 cell; inhibitory effect on the growth of MDA-MB-468 cells (in words) ([2]; MTT assay): inhibited the growth of MDA-MB-468 cell
11 | 6.33 | 6.34 | 43 | 84 | 99 | CN(C)CCCOc1ccc(-c2ccc3ncc4nnc(CN5CCOCC5)n4c3c2)cc1 [Example 27, N,N-dimethyl-3-(4-(1-(morpholinomethyl)-[1,2,4]triazolo[4,3-a]quinoxalin-8-yl)phenoxy)propan-1-amine] | –
12 | 5.92 | 6.07 | 34 | 81 | 97 | CN(C)CCCOc1ccc(-c2ccc3ncc4nnc(-c5c[nH]cn5)n4c3c2)cc1 [Example 29, N,N-dimethyl-3-(4-(1-(1H-imidazol-4-yl)-[1,2,4]triazolo[4,3-a]quinoxalin-8-yl)phenoxy)propan-1-amine] | –
13 | < 5.00 | < 5.00 | – | – | 14 | CN(C)CCCOc1ccc(-c2cc3c(cn2)ncc2nnc(C4CCOCC4)n23)cc1 [Example 30, N,N-dimethyl-3-(4-(1-(tetrahydro-2H-pyran-4-yl)pyrido[3,4-e][1,2,4]triazolo[4,3-a]pyrazin-8-yl)phenoxy)propan-1-amine] | –
14 | 6.58 | 6.48 | 51 | 92 | 100 | CN(C)CCCOc1ccc(-c2ccc3ncc4nnc(C5CCOCC5)n4c3n2)cc1 [Example 31, N,N-dimethyl-3-(4-(9-(tetrahydro-2H-pyran-4-yl)pyrido[3,2-e][1,2,4]triazolo[4,3-a]pyrazin-2-yl)phenoxy)propan-1-amine] | –
15 | 6.01 | < 5.00 | – | – | – | CN(C)C1CCN(c2ccc(-c3ccc4ncc5nnc(N6CCC(N(C)C)CC6)n5c4n3)cc2)CC1 [Example 90, 1-(2-(4-(4-(dimethylamino)piperidin-1-yl)phenyl)pyrido[3,2-e][1,2,4]triazolo[4,3-a]pyrazin-9-yl)-N,N-dimethylpiperidin-4-amine] | –
